Measurements reported in ChEMBL document CHEMBL5137070, “N-2-(Phenylamino) Benzamide Derivatives as Dual Inhibitors of COX-2 and Topo I Deter Gastrointestinal Cancers via Targeting Inflammation and Tumor Progression” (J Med Chem, 2022).
Active and inactive are the calls of the source. The rule behind the calls is not given here.

Key:
[1] = test system: HT-29; assay: Antiproliferative activity against human HT-29 cells assessed as reduction in cell proliferation incubated for 48 hrs by MTT assay; type: functional, cell-based; conditions: HT-29, 48 h
[2] = target: T1, DNA topoisomerase 1 (Homo sapiens, UniProt P11387); assay: Inhibition of human topoisomerase I assessed as DNA relaxation using DNA pBR322 as substrate incubated for 30 mins by ethidium bromide staining based agarose gel electrophoresis
T1 sequence (P11387 whole entry): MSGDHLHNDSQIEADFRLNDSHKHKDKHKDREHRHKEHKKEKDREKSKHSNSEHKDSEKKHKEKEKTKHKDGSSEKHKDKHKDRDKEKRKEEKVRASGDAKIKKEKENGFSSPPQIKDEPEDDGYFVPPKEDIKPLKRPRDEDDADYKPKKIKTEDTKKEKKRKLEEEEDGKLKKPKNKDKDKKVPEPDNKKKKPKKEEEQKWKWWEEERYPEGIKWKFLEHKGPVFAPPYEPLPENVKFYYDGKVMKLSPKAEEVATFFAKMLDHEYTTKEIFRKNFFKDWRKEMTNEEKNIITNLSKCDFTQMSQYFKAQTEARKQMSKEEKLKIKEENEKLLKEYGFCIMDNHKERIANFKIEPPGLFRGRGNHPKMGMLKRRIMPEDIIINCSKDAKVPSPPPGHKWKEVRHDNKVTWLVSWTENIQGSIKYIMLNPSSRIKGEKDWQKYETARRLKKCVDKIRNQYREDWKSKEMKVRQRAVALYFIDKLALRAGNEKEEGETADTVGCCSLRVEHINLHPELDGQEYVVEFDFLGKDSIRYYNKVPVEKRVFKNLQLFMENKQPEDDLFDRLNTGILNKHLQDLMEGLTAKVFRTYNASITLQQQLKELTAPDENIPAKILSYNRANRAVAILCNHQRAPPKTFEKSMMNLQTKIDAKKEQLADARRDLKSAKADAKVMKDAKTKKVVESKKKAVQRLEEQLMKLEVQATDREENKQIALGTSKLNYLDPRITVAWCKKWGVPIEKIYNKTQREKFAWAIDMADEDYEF

[3] = test system: HGC-27; assay: Effect on cell morphology in human HGC-27 cells assessed as lose of adherence at 10 uM incubated for 48 hrs by giemsa staining based microscopic analysis; type: functional
[4] = test system: HGC-27; assay: Effect on cell morphology in human HGC-27 cells assessed as condensed morphology at 10 uM incubated for 48 hrs by giemsa staining based microscopic analysis; type: functional
[5] = test system: RKO; assay: Effect on cell morphology in human RKO cells assessed as appearance of round cells at 10 uM incubated for 48 hrs by giemsa staining based microscopic analysis; type: functional
[6] = test system: RKO; assay: Effect on cell morphology in human RKO cells assessed as condensed morphology at 10 uM incubated for 48 hrs by giemsa staining based microscopic analysis; type: functional
[7] = test system: RKO; assay: Effect on cell morphology in human RKO cells assessed as contracted nucleus at 10 uM incubated for 48 hrs by giemsa staining based microscopic analysis; type: functional
[8] = test system: RKO; assay: Induction of mitochondrial membrane loss in human RKO at 1.1 to 10 uM and measured after 36 hrs by TMRE dye based flow cytometry; type: functional, cell-based; conditions: dose 1.1-10 µM, DDE = dose-dependent effect
[9] = test system: CT26.WT; assay: Antiproliferative activity against mouse CT26.WT cells assessed as cell viability at 1.23 uM for 48 hrs by MTT assay; type: functional; conditions: read-out: Activity
[10] = test system: HGC-27; assay: Anti-migration activity against human HGC-27 cells assessed as decrease in cell migration rate at 0.37 uM for 48 hrs by crystalline violet staining based assay; type: functional
[11] = target: T2, Nuclear factor NF-kappa-B complex (Homo sapiens) (UniProt Q00653+P19838+Q04206); assay: Inhibition of NF-kappaB activation in human HT-29 cells assessed as reduction in TNFalpha-stimulated NF-kappaB nuclear translocation at 10 uM for 24 hrs followed by TNF- alpha stimulation for 1 hrs by DAPI staining based immunofluorescence assay; type: cell-based; conditions: time 25.0 hrs
[12] = target: T2, Nuclear factor NF-kappa-B complex (Homo sapiens); assay: Inhibition of NF-kappaB activation in human HGC-27 cells assessed as downregulation of NF-kappaB phosphorylation at 10 uM for 48 hrs by DAPI staining based immunofluorescence assay; type: cell-based
[13] = Tmax in Sprague-Dawley rat at 100 mg/kg, ip and measured upto 8 hrs by LC-MS/MS analysis; type: ADME, organism-based; conditions: in vivo
[14] = AUC (0 to infinity) in Sprague-Dawley rat at 100 mg/kg, ip and measured upto 8 hrs by LC-MS/MS analysis; type: ADME, organism-based; design: dose 100 mg/kg, time < 8 hrs, route ip; conditions: in vivo
[15] = test system: CT26.WT; assay: Anti-tumor activity against mouse CT26.WT xenografted in BALB/c mouse assessed as decrease in tumor size at 100 mg/kg, ip twice daily and measured upto 14 days relative to control; type: functional, organism-based; conditions: time <= 14.0 day
[16] = Toxicity in BALB/c mouse xenografted with mouse CT26.WT assessed as pathological changes in heart at 100 mg/kg, ip twice daily and measured after 14 days by hematoxylin and eosin staining based microscopic analysis; type: organism-based; conditions: in vivo, 336 h, time 14 day
[17] = test system: CT26.WT; assay: Anti-tumor activity against mouse CT26.WT xenografted in BALB/c mouse assessed as increase in cleaved caspase-3 expression level at 100 mg/kg, ip twice daily and measured after 14 days by immunohistochemical analysis; type: functional, organism-based; conditions: time 14.0 day
[18] = test system: RKO; assay: Induction of apoptosis in human RKO cells at 1.1 to 10 uM for 24 hrs by Annexin V-FITC/PI staining based flow cytometry; type: functional, cell-based; conditions: dose 1.1-10 µM

T2 sequence (P19838 whole entry, looked up): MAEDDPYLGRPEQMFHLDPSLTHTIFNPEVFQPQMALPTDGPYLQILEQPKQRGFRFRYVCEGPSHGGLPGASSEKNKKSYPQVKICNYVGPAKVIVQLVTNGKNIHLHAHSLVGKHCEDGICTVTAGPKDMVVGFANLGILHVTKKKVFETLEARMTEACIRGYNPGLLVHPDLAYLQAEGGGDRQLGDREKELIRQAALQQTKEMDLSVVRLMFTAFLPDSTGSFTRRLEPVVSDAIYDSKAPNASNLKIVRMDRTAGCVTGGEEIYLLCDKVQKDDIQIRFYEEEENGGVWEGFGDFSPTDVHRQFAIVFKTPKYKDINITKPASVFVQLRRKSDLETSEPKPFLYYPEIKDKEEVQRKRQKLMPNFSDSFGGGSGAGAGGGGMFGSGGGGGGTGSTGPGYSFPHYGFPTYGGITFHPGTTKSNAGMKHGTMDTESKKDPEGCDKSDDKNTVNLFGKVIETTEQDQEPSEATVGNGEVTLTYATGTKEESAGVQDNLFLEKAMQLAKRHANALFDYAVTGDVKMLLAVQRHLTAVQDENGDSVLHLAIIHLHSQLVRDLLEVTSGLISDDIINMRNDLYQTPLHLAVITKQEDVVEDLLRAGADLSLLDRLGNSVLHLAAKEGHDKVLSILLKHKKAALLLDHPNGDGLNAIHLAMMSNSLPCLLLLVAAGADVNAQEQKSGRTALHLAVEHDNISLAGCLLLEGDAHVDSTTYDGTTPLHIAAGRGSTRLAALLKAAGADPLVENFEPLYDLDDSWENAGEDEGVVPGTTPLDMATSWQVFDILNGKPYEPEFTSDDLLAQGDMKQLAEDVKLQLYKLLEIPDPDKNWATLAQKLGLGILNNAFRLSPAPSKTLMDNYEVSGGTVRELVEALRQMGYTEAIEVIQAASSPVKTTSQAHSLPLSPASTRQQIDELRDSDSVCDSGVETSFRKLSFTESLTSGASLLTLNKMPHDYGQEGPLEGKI
T2 sequence (Q00653 whole entry, looked up): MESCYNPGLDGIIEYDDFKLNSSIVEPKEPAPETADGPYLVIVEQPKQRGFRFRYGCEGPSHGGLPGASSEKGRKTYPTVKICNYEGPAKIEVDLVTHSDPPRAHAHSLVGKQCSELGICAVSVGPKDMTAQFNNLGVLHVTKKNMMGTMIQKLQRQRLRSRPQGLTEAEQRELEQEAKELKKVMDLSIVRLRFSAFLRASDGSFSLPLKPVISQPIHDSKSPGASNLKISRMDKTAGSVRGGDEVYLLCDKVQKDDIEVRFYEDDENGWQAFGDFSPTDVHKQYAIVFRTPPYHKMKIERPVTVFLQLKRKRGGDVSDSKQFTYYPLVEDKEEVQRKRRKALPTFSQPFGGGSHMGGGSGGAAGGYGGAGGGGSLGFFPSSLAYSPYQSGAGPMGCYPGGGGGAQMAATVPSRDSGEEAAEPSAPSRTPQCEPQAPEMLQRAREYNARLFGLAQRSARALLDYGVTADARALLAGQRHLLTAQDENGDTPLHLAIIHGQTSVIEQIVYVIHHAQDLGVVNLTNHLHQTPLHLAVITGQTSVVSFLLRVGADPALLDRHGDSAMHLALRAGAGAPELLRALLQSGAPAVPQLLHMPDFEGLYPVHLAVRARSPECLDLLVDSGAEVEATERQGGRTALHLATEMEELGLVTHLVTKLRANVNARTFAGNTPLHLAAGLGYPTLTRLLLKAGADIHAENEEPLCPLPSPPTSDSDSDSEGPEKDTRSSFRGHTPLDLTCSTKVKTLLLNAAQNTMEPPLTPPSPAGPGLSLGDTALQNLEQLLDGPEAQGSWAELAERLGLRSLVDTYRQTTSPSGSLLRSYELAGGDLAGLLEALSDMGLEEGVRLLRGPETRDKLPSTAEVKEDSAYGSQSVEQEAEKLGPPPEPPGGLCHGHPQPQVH
T2 sequence (Q04206 whole entry, looked up): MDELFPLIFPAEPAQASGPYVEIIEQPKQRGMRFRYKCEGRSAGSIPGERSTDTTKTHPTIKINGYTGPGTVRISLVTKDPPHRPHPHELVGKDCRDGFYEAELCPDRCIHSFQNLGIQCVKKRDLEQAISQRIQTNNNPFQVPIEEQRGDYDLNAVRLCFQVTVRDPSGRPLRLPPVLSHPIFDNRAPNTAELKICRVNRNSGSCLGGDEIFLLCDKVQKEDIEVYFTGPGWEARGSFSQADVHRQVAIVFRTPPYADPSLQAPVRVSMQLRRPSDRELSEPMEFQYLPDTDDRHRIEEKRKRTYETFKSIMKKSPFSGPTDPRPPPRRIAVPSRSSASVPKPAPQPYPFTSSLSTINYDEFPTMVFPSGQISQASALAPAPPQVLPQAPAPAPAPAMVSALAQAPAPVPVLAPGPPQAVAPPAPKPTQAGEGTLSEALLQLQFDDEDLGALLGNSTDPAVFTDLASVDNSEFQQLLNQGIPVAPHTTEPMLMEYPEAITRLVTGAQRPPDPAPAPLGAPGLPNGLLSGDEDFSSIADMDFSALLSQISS

Cc1c(Cl)cccc1Nc1ccc(F)cc1C(=O)NCc1ccc(O)c(O)c1
IC50 [1]: 16.9 µM
IC50 [2]: 4.42 µM
Activity [3]: Active
Activity [4]: Active
Activity [5]: Active
Activity [6]: Active
Activity [7]: Active
Activity [8]: Dde
viability at 1.23 µM [9]: > 80%
Activity [10]: Active
inhibition [11]: Active
inhibition [12]: Active
Tmax [13]: 40.2 min
AUC(0-inf) [14]: 18600 ng·h/mL
Activity [15]: Active
Activity [16]: Non-Toxic
Activity [17]: Active
Activity [18]: Active
